Data: patent publication US12503426B2, “Synthetic derivatives of oleoyl-lysophosphatidylinositol (oleoyl-LPI) and uses thereof” (LIPOVEXA SRL, priority 2017, dated 2025)

Assays:
CREB = CREB phosphorylation by Western blot; type: cell-based; details: H89 10 μM pre-treatment or oleoyl-LPI in control cells
Description: When cell cultures reached 80-90%, media were removed and cells were washed twice with 1×PBS. The cells were lysed in 150 μl (for one well of a 6 well plate) of Triton X-100 lysis buffer, containing phosphatase inhibitor cocktail (1:1000) (Sigma Aldrich, UK) and protease inhibitor (1:1000, Sigma Aldrich, UK). Cells were detached with scrapers and lysate were collected and centrifuged at 10,000 rpm, 4° C. for 5 minutes. The supernatant was then transferred to a 1.5 ml microcentrifuge tube and used for protein quantification. Cell lysates were stored at −20° C. for longer storage. All lysates were prepared on ice.
Non-specific antibody binding was prevented by incubating the nitrocellulose membrane in 5% milk in PBS-0.05% Tween-20 (v/v) for 30 minutes on a rotating plate. The membrane was then washed in PBS-0.05% Tween-20 (v/v) and then incubated with the primary antibody diluted in PBS-0.05% Tween-20 (v/v) on a rotating plate overnight at 4° C. After 24 hours, the membrane was washed 5× for 5 minutes with PBS-0.05% Tween-20 (v/v), and then incubated on a rotating plate with the appropriate secondary antibody for 1 hour at room temperature. […]

Glutag cells = test: GLP-1 secretion by Glutag cells; type: cell-based, murine; details: Glutag cells, inhibitor 1 hour before oleoyl-LPI (PD98059 50 μM; H89 10 μM)
Description: Glutag cells were maintained in low glucose DMEM (Sigma) (1 g/L) containing 2.0 mM L-glutamine, 1.0 mM sodium pyruvate and supplemented with 10% FBS, 100 IU/ml penicillin, 100 μg/ml streptomycin at a 37° C. and 5% CO2.
(§1) Approximately 80,000 Glutag cells were plated in poly-L-lysine-coated 24-well culture plates and grown to about 80% confluence. NCI-H716 cells were seeded on growth factor reduced Matrigel™ (Becton Dickinson, Bedford, MA) in DMEM medium, supplemented with 10% FBS the day before the experiment. For NCI-H716 cells, approximately 25,000 cells were needed for this secretion experiment in order to have good stimulation with lower basal GLP-1 secretion. In brief, Glutag and NCI-H716 cells were washed twice and then incubated for 2 h with FBS-free DMEM containing 1% (M:C) alone (negative control), 10 μM forskolin as positive control (Sigma-Aldrich), or with different concentrations of Oleoyl-LPI. M:C was used as a solvent to prepare stock solutions of fatty acid derivatives and inhibitors. For secretion experiments, medium and cells were collected separately.
(§2) In separate studies, GLUTag or NCI-H716 cells were pre-treated for 1 hour with medium alone (1% DMSO, negative control), PD98059 (50 μM; Sigma Chemical Co.), H89 (10 μM; Santa Cruz) followed by treatment with oleoyl-LPI (20 μM), OEA (10 μM), AR231453(1 μM), PMA (10 μM) or forskolin (10 μM, positive control) in the presence of inhibitors, as appropriate, for about 2 h. Medium GLP-1 secretion was calculated as total GLP-1 content of medium normalised for the basal secretion of the control.
(§3) In order to investigate the role of different LPI species in enteroendocrine cells, murine (Glutag) and human (NCI-H716) L-cells were stimulated with the following different species of LPI: Arachidonyl-LPI, Stearoyl-LPI, Heptadecenoyl-LPI and oleoyl-LPI, as well as with OEA and LPC. Experiments were performed in duplicate, n=4 and the level of total GLP-1 was measured by ELISA.

NCI-H716 cells = test: GLP-1 secretion by NCI-H716 cells (Examples 2-8); type: cell-based, human; details: NCI-H716 cells, inhibitor 1 hour before oleoyl-LPI (PD98059 50 μM; H89 10 μM)
Description: NCI-H716 cells were maintained in 75 cm^2 tissue culture flasks (Corning) in RPMI 1640 media containing 2.0 mM L-glutamine, 1.5 g/L sodium bicarbonate, 10 mM HEPES buffer, 1.0 mM sodium pyruvate, and 4.5 g/L glucose and supplemented with 10% FBS at a 37° C. and 5% CO2. When plating for experiment, cell adhesion and endocrine differentiation were initiated by growing cells in dishes coated with growth factor reduced Matrigel diluted at the ratio of 1:2 (Becton Dickinson, Bedford, MA) in high-glucose DMEM, 10% FBS, 2 mM glutamine, 100 IU/ml penicillin, and 100 μg/ml streptomycin as described previously by De Bruine, a P., Dinjens, W. N., van der Linden, E. P., Pijls, M. M., Moerkerk, P. T., & Bosman, F. T. (1993) The American Journal of Pathology, Vol 142(3), pp 773-782, the disclosure of which is incorporated herein in its entirety by reference.
as §1, §2, §3

human GPR119 = biological target: T1, human GPR119 (Homo sapiens, UniProt Q8TDV5); test: cAMP assay in GPR119 transfected COS-7 cells; type: cell-based; details: COS-7 cells expressing human GPR119, agonists 30 min; read-out: EC50, production of cAMP
T1 construct: expressed in transfected cells; host or cells: COS-7 cells, calcium phosphate transfection
T1 sequence (Q8TDV5 1-335): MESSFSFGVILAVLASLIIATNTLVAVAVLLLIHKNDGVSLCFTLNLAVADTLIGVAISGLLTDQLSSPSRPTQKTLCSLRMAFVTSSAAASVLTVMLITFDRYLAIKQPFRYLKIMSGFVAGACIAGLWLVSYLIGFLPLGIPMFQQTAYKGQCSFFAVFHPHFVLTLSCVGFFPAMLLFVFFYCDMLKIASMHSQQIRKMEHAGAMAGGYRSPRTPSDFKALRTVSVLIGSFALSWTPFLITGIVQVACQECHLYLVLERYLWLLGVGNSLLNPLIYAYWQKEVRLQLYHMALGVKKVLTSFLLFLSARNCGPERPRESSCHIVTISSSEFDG
Description: COS-7 cells were cultured in Dulbecco's modified Eagle medium (DMEM) 1885 supplemented with 10% FBS, […] L-glutamine and 180 IU/ml penicillin+[…] streptomycin (Pen Strep) (Life Technologies, CA, USA) at 37° C. and 10% CO2. The COS-7 cells were transiently transfected with GPR119 or pcDNA by the calcium phosphate transfection method for 5 hours in 37° C., 10% CO2 as described by Kissow H, Hartmann B, Hoist J J, Viby N E, Hansen L S, Rosenkilde M M, Hare K J, Poulsen S S. Regul Pept. 2012. Vol: 179(1-3), pp 91-100; the disclosure of which is incorporated herein in its entirety by way of reference.
COS-7 cells were transfected with about 40 μg GPR119 DNA or pcDNA3 per […] flask. One day after transfection, the cells were seeded out (about 35,000 cell/well) in a 96 well white plate (Perkin Elmer, Massachusetts, USA). The cells were washed twice the following day and incubated for 30 min, at 37° C. with HBS and 1 mM IBMX (Sigma Aldrich, USA). Agonists were added for 30 min in the assay medium. The Hithunter® cAMP XS+ (DiscoveRx, Fremont, USA) was carried out by following the manufacturer's instructions.
Accordingly, the work outlined in this example evaluates whether activation of GPR119 by oleoyl-LPI in enteroendocrine L cell affect the proglucagon gene expression by monitoring the CREB activity. […]

[1] = test system: colonic cells of the GI tract obtained from guinea pig; test: Ex vivo GLP-1 biosynthesis and secretion, guinea pig GI tract cells; type: cell-based; details: Cavia porcellus; ex vivo incubation 2 hours, quadruplicates
Description: To test for this, a pregnant guinea pig was anesthetized with isoflurane and sacrificed via intra-cardial injection of pentobarbital. Colon and rectum were quickly collected and intraluminal content washed out with ice-cold HBSS. After a thorough cleansing from the faecal material, and gentle scraping of the internal mucosa, the tissue was minced into 3 to 5-millimetre pieces and resuspended into 50 ml of ice cold HBSS. Pellet was spun down and washed again in 50 ml of ice-cold HBSS. Supernatant was carefully removed, and the epithelial fragments were then resuspended for 30 minutes at 37° C. into a 5 ml solution of HEPES 25 mM, collagenase-P 1 mg/ml in HBSS, pH 7.4 at 37° C.
The tissue was then pelleted and resuspended further for about 30 to 40 additional minutes at 37° C. within a 10 ml solution of 1 mg/ml collagenase-P as above.
After the digestion, about 40 ml of pre-warmed DMEM complete media was added (FBS 10%, glucose 4.5 g/L, glutamine 4 mM, sodium pyruvate 1 mM, HEPES 25 mM, sodium bicarbonate 3.7 g/L, Pen/Strep 1× and Ciprofloxacin 10 μg/ml pH 7.4 at 37° C.). Crypts and individual cells were isolated with a […] nylon strainer, spun down at 200 g for 5 minutes, resuspended into 10 ml of DMEM complete media and plated into 20 wells of a 24-well plate coated with a 3D gel of 3 mg/ml Matrigel (BD, Biosciences, Oxford, UK). After one day of incubation at 37° C. 5% CO2 in a humidified incubator, cells were washed with 500 μl of warm HBSS, and treated with 250 μl DMEM serum free (Complete medium without FBS) additioned with KR-62436 10 μg/ml and individually the following drugs or compounds: Forskolin and IBMX (20 μM each), oleoyl-LPI, and the two oleoyl-LPI analogs and/or derivatives ps297b (prepared as described in example 13) and ps316a (prepared as described in example 22) were all tested in quadruplicate at 20 μM.
After a 2-hour long incubation at 37 C 5% CO2, the supernatants were collected on ice, and quickly stored at […]. Active GLP-1 levels (7-37 amide and 7-36) were quantified on 50 μl of supernatant with an ELISA commercial kit (EMD Millipore). DMSO was used as a negative control, the combination of Forskolin and IBMX was included as positive control activators GLP-1. GLP-1 levels measured were standardized against the DMSO control.
The EC50 levels each one of oleoyl-LPI, compound ps297b and compound ps316a were also measured in quadruplicates at the conclusion of the 2 hour incubation. Guinea pig cells obtained as described above were also incubated with […] in quadruplicates and subjected to 2-hour long incubation at 37 C 5% CO2 as described above and EC50 levels measured.

[2] = test system: Glutag and NCI-H761 cells; test: Dose response of GLP-1 release at different glucose concentrations; type: cell-based
Description: Panels A and B show results of dose response of GLP-1 release in different glucose concentration of 5 mM (panel A) and 10 mM (panel B). The dose response of GLP-1 released was normalised of number of cells measured in parallel. Glutag and […] cells were incubated with vehicle alone, oleoyl-LPI, OEA, LPC forskolin (10 μM) and PMA (1 μM) as positive control for 2 hours. Results were normalised as percentage of cell treated with vehicle (control). For panels A and B data are shown as means±SEM of n=3 from independent experiments performed in duplicates. Student t-test: *p<0.05, **P<0.01. Panel C show results of dose response of GLP-1 release in a glucose concentration of 20 mM.
as §1
To determine the effect of glucose in oleoyl-LPI induced GLP-1 secretion, the inventors conducted dose-response experiment in the presence of 5 mM and 10 mM glucose in the secretion medium with the results outlined in FIG. 2A and FIG. 2B.

Structure (SMILES) | phosphorylation of CREB (CREB) | oleoyl-LPI induced GLP-1 secretion with inhibitor pre-treatment (Glutag cells) | oleoyl-LPI induced GLP-1 secretion with inhibitor pre-treatment (NCI-H716 cells) | EC50 (human GPR119) | EC50 [1] | GLP-1 secretion ([2]; 5 mM glucose, 50 μM, 2 hours, percentage of vehicle control) | GLP-1 secretion, dose response ([2]; 10 mM glucose)
O=S(=O)(NCCNC/C=C/c1ccc(Br)cc1)c1cccc2cnccc12 [H89] | inhibited | observable reduction in GLP-1 secretion | observable reduction in GLP-1 secretion |  |  |  | 
CCCCCCCC/C=C\CCCCCCCC(=O)NCCO [OEA, Oleoylethanolamide] |  |  |  | 0.422 µM | 30.7 µM | 178±15% | dose-dependently stimulate GLP-1 secretion in similar manner of oleoyl-LPI
